Reference: paper PMC8389614, “A Comparison of Acute Pharmacological Effects of Methylone and MDMA Administration in Humans and Oral Fluid Concentrations as Biomarkers of Exposure” (Biology, 2021)

Assays:
Assay type in all cases: in vivo, humans
healthy poly-drug users [1] = assay: Subjective effects, VESSPA-SSE questionnaire; design: key to VESSPA PS Dunnet’s Test: “a” (times 0–1 h); “b” (times 0–2 h); “c” (times 0–4 h); not significant (NS); settings: for VESSPA ACT (activity and energy) AUC0–4h / VESSPA ACT (activity and energy) Emax / VESSPA ANX (psychosomatic anxiety) AUC0–4h / VESSPA ANX (psychosomatic anxiety) Emax / VESSPA PS (psychotic symptoms) AUC0–4h / VESSPA PS (psychotic symptoms) Emax / VESSPA S (sedation) AUC0–4h / VESSPA S (sedation) Emax / VESSPA SOC (pleasure and sociability) AUC0–4h / VESSPA SOC (pleasure and sociability) Emax: oral, methylone 100–300 mg n=8, MDMA 75–100 mg n=6, baseline-adjusted, mean ± SD; for VESSPA ACT Dunnet’s Test / VESSPA ANX Dunnet’s Test / VESSPA PS Dunnet’s Test / VESSPA S Dunnet’s Test / VESSPA SOC Dunnet’s Test: time points significantly different from baseline
Source text: (§1) The study was designed as a non-controlled prospective observational study in a naturalistic setting with methylone and MDMA self-administration. The methodology, including procedures and evaluations, coincides with previous observational–naturalistic studies aimed at evaluating the acute effects of other NPS [38, 39, 40]. Six subjects (5 M, 1 F) self-administered MDMA and 8 subjects (5 M, 3 F) self-administered methylone. Each subject participated only in one session. Participants brought their own substance obtained from an unknown source, which was tested by Energy Control, a harm reduction organization that provides a drug checking service to drug users. Pills containing methylone and MDMA were analyzed by gas chromatography associated with mass spectrometry (GC/MS), a technique that traces the presence of the most frequent drugs of abuse, such as MDMA, cocaine, heroin, amphetamine and methamphetamine, LSD, and multiple NPS (methylone, mephedrone, and other synthetic cathinones, synthetic cannabinoids, tryptamines, among others).
(§2) In both sessions, participants selected the dose of methylone or MDMA according to their previous drug use experience. Doses of methylone could be selected from a range (75–300 mg) that was previously defined according to the consulted literature. The WHO Expert Committee on Drug Dependence (Thirty-Sixth Meeting, Geneva, Switzerland, 16–20 June 2014) established that 60 mg of methylone was the threshold dose and doses over 250 mg were often related to very strong activity. Some users have reported uses of 300 mg of methylone as a common dose [www.erowid.org] (accessed on 15 June 2021). The mean of the selected doses of MDMA was 87.50 mg (3 subjects ingested 75 mg (2 males and 1 female), 3 males 100 mg). In the other study session, methylone doses ranged from 100 to 300 mg, with a mean of 187.50 mg. Based on their dose selection, 1 male ingested 100 mg, 2 subjects 150 mg (1 male and 1 female), 4 subjects 200 mg (2 males and 2 females), and 1 male 300 mg.
(§3) The sessions were conducted in a naturalistic setting. Participants were allowed to talk, read, listen to music, or play games, except during the evaluation times. However, they were asked to refrain from talking about the effects of the substance. All the subjects were evaluated simultaneously at baseline, 1, 2, and 4 h after administration of methylone or MDMA, which occurred approximately at 16:00 h. At each time point, evaluations were followed in a specific order: physiological effects, oral fluid collection, and subjective effects scales and questionnaires.
(§4) Subjective effects were evaluated at baseline, 1, 2, and 4 h after self-administration using visual analogue scales (VAS), the Addiction Research Center Inventory (ARCI), and the Evaluation of Subjective Effects of Substances with Abuse Potential questionnaire (VESSPA-SSE).
The VESSPA-SSE is a questionnaire sensitive to subjective effects related to stimulants such as MDMA that includes six subscales: sedation (S), psychosomatic anxiety (ANX), changes in perception (CP), pleasure and sociability (SOC), activity and energy (ACT), and psychotic symptoms (PS).
(§5) Vital signs (SBP, DBP, and HR) and subjective effects (VAS, ARCI, and VESSPA-SSE) were baseline-adjusted. Maximum effects and the time in which maximum effects appeared were determined, and the area under the curve (AUC0–4h) was calculated with the trapezoidal rule.
(§6) Thirdly, to find possible significant changes from baseline, a Dunnett multiple comparison test was conducted to compare each time point with baseline in both drug conditions (0–1 h, 0–2 h, 0–4 h).

[2] = Oral fluid concentrations (Salivette, LC-MS/MS); settings: both sexes, human; for Cmax / AUC(0-t): methylone 100–300 mg n=8, MDMA 75–100 mg n=6, mean ± SD; for AUC(0-t): read-out: Oral fluid AUC0–4 h; for Tmax: methylone 100–300 mg n=8, MDMA 75–100 mg n=6, median (min–max)
Experimental: In both sessions, oral fluid samples were collected with Salivette to determine methylone and MDMA concentrations in oral fluid at baseline, 1 h, 2 h, and 4 h. All samples were centrifuged after collection and stored frozen at −20 °C until analysis. Methylone and MDMA oral fluid concentrations were quantified via liquid chromatography tandem–mass spectrometry (LC–MS/MS).
For oral fluid concentrations of MDMA and methylone, only a descriptive analysis was presented showing main pharmacokinetics data such as the maximum concentration (Cmax), the time required to reach maximum concentrations (Tmax), and AUC0–4h. These parameters were calculated using the Pharmacokinetic Functions for Microsoft Excel (Joel Usansky, Atul Desai, and Diane Tang-Liu, Department of Pharmacokinetics and Drug Metabolism, Allergan, Irvine, CA, USA).

healthy poly-drug users [3] = assay: Subjective effects, ARCI 49-item short form; design: key to ARCI PCAG Dunnet’s Test: “a” (times 0–1 h); “b” (times 0–2 h); “c” (times 0–4 h); not significant (NS); settings: for ARCI A (increased energy) AUC0–4h / ARCI A (increased energy) Emax / ARCI BG (intellectual efficiency) AUC0–4h / ARCI BG (intellectual efficiency) Emax / ARCI MBG (euphoria) AUC0–4h / ARCI MBG (euphoria) Emax / ARCI PCAG (sedation) AUC0–4h / ARCI PCAG (sedation) Emax / ARCI A (increased energy) Tmax: oral, methylone 100–300 mg n=8, MDMA 75–100 mg n=6; for ARCI A (increased energy) AUC0–4h / ARCI A (increased energy) Emax / ARCI BG (intellectual efficiency) AUC0–4h / ARCI BG (intellectual efficiency) Emax / ARCI MBG (euphoria) AUC0–4h / ARCI MBG (euphoria) Emax / ARCI PCAG (sedation) AUC0–4h / ARCI PCAG (sedation) Emax: baseline-adjusted, mean ± SD; for ARCI A (increased energy) Tmax: median (min–max); for ARCI A Dunnet’s Test / ARCI BG Dunnet’s Test / ARCI MBG Dunnet’s Test / ARCI PCAG Dunnet’s Test: time points significantly different from baseline
Source text: as §1, §2, §3, §4
The standardized ARCI 49-item short form is a true/false questionnaire used to evaluate the subjective effects of drugs of abuse. This inventory includes five subscales that assess pentobarbital–chlorpromazine–alcohol-like effects (PCAG, sedation), morphine–benzedrine-like effects (MBG, euphoria), lysergic acid diethylamide-like effects (LSD, dysphoria), benzedrine-like effects (BG, intellectual efficiency), and amphetamine-like effects (A, increased energy).
as §5, §6

Row | Structure (SMILES) | VESSPA ACT (activity and energy) AUC0–4h (healthy poly-drug users [1]) | VESSPA ACT (activity and energy) Emax (healthy poly-drug users [1]) [score] | VESSPA ANX (psychosomatic anxiety) AUC0–4h (healthy poly-drug users [1]) | VESSPA ANX (psychosomatic anxiety) Emax (healthy poly-drug users [1]) [score] | VESSPA PS (psychotic symptoms) AUC0–4h (healthy poly-drug users [1]) | VESSPA PS (psychotic symptoms) Emax (healthy poly-drug users [1]) [score] | VESSPA S (sedation) AUC0–4h (healthy poly-drug users [1]) | VESSPA S (sedation) Emax (healthy poly-drug users [1]) [score] | VESSPA SOC (pleasure and sociability) AUC0–4h (healthy poly-drug users [1]) | VESSPA SOC (pleasure and sociability) Emax (healthy poly-drug users [1]) [score] | VESSPA ACT Dunnet’s Test (healthy poly-drug users [1]) | VESSPA ANX Dunnet’s Test (healthy poly-drug users [1]) | VESSPA PS Dunnet’s Test (healthy poly-drug users [1]) | VESSPA S Dunnet’s Test (healthy poly-drug users [1]) | VESSPA SOC Dunnet’s Test (healthy poly-drug users [1]) | Cmax [2] [ng/mL] | AUC(0-t) [2] [ng·h/mL] | Tmax [2] [h] | ARCI A (increased energy) AUC0–4h (healthy poly-drug users [3]) | ARCI A (increased energy) Emax (healthy poly-drug users [3]) [score] | other results
1 | CNC(C)Cc1ccc2c(c1)OCO2 (centres unmarked) [MDMA, 3,4-methylenedioxymethamphetamine] | 32.58 ± 15.71 | 13.33 ± 4.84 | 16.50 ± 8.82 | 6.67 ± 4.37 | 2.25 ± 2.36 | 1.33 ± 1.21 | 5.92 ± 6.09 | 2.83 ± 2.23 | 38.67 ± 17.84 | 14.50 ± 5.96 | a, b | a, b | NS | a, c | a, b | 2940 ± 2760 | 6590 ± 5230 | 2 | 15.75 ± 2.79 | 5.83 ± 1.17 | ARCI BG (intellectual efficiency) AUC0–4h (healthy poly-drug users [3]): 9.83 ± 6.38; ARCI BG (intellectual efficiency) Emax (healthy poly-drug users [3]): 4.67 ± 2.25 score; ARCI MBG (euphoria) AUC0–4h (healthy poly-drug users [3]): 20.83 ±10.05; ARCI MBG (euphoria) Emax (healthy poly-drug users [3]): 8.0 ± 3.35 score; ARCI PCAG (sedation) AUC0–4h (healthy poly-drug users [3]): −1.58 ± 8.39; ARCI PCAG (sedation) Emax (healthy poly-drug users [3]): −0.83 ± 3.54 score; ARCI A (increased energy) Tmax (healthy poly-drug users [3]): 1.0 (1.0–2.0) h; ARCI A Dunnet’s Test (healthy poly-drug users [3]): a, b, c; ARCI BG Dunnet’s Test (healthy poly-drug users [3]): a, b; ARCI MBG Dunnet’s Test (healthy poly-drug users [3]): a, b; ARCI PCAG Dunnet’s Test (healthy poly-drug users [3]): NS
2 | CNC(C)C(=O)c1ccc2c(c1)OCO2 (centres unmarked) [Methylone, 3,4-methylenedioxymethcathinone] | 24.44 ± 17.87 | 9.75 ± 6.25 | 17.94 ± 11.17 | 7.50 ± 4.69 | 5.63 ± 5.58 | 2.63 ± 2.20 | 7.06 ± 6.45 | 3.38 ± 2.50 | 31.31 ± 25.40 | 12.25 ± 8.31 | a, b | b, c | b | b, c | a, b | 15500 | 40600 | 2 | 12.56 ± 7.77 | 5.38 ± 3.29 | ARCI BG (intellectual efficiency) AUC0–4h (healthy poly-drug users [3]): 10.06 ± 7.83; ARCI BG (intellectual efficiency) Emax (healthy poly-drug users [3]): 4.63 ± 3.34 score; ARCI MBG (euphoria) AUC0–4h (healthy poly-drug users [3]): 16.63 ± 13.21; ARCI MBG (euphoria) Emax (healthy poly-drug users [3]): 7.5 ± 5.13 score; ARCI PCAG (sedation) AUC0–4h (healthy poly-drug users [3]): −2.75 ± 3.73; ARCI PCAG (sedation) Emax (healthy poly-drug users [3]): −1.25 ± 1.58 score; ARCI A (increased energy) Tmax (healthy poly-drug users [3]): 1.5 (1.0–4.0) h; ARCI A Dunnet’s Test (healthy poly-drug users [3]): a, b; ARCI BG Dunnet’s Test (healthy poly-drug users [3]): a, b; ARCI MBG Dunnet’s Test (healthy poly-drug users [3]): a, b; ARCI PCAG Dunnet’s Test (healthy poly-drug users [3]): a
